According to ChEMBL document CHEMBL1201862, “PubChem BioAssay data set” (2004):
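Step 1: Grow cells in 96-well plates. Step 2: Expose to compound for 48 hours at 5 concentrations. Step 3: Interpolate endpoints linearly; if unreached, use highest concentration. GI50 = concentration required for 50% inhibition of growth.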 The source made the active and inactive calls. No stated cut-off is given here; in the data, active = GI50 up to about 1.1 µM and inactive = higher.

Assays:
Test in all cases: NCI tumour cell line growth inhibition, 48 h
A549 = test system: A549
ACHN = test system: ACHN
COLO 205 = test system: COLO 205
HCC 2998 = test system: HCC 2998
HCT-116 = test system: HCT-116
HOP-92 = test system: HOP-92
LOX IMVI = test system: LOX IMVI
NCI-H23 = test system: NCI-H23
NCI-H522 = test system: NCI-H522
OVCAR-4 = test system: OVCAR-4
OVCAR-5 = test system: OVCAR-5
OVCAR-8 = test system: OVCAR-8
SN12C = test system: SN12C
SW-620 = test system: SW-620
U-251 = test system: U-251
UO-31 = test system: UO-31
SK-MEL-5 = test system: SK-MEL-5

SMILES | GI50 (A549) | GI50 (ACHN) | GI50 (COLO 205) | GI50 (HCC 2998) | GI50 (HCT-116) | GI50 (HOP-92) | GI50 (LOX IMVI) | GI50 (NCI-H23) | GI50 (NCI-H522) | GI50 (OVCAR-4) | GI50 (OVCAR-5) | GI50 (OVCAR-8) | GI50 (SN12C) | GI50 (SW-620) | GI50 (U-251) | GI50 (UO-31) | GI50 (SK-MEL-5)
O=C(CCc1cc(-c2ccccc2)nc(S)n1)N(Cc1ccccc1)Cc1ccccc1 | > 100 µM (inactive) | > 100 µM (inactive) | > 100 µM (inactive) | > 100 µM (inactive) | > 100 µM (inactive) | 97.3 µM (inactive) | > 100 µM (inactive) | > 100 µM (inactive) | > 100 µM (inactive) | > 100 µM (inactive) | > 100 µM (inactive) | > 100 µM (inactive) | > 100 µM (inactive) | > 100 µM (inactive) | > 100 µM (inactive) | > 100 µM (inactive) | 
COC(=O)/C(=C/c1ccc(OC)cc1)C(C(=O)O)=C(C)C | > 100 µM (inactive) |  | > 100 µM (inactive) | > 100 µM (inactive) | > 100 µM (inactive) | > 100 µM (inactive) | > 100 µM (inactive) | > 100 µM (inactive) | > 100 µM (inactive) |  | > 100 µM (inactive) | > 100 µM (inactive) | > 100 µM (inactive) | > 100 µM (inactive) | > 100 µM (inactive) | > 100 µM (inactive) | > 100 µM (inactive)
Cc1cc(NS(=O)(=O)c2ccc(Nc3c4ccccc4nc4c(C(=O)N5CCN(CCOS(C)(=O)=O)CC5)cccc34)cc2)no1 | > 100 µM (inactive) | > 100 µM (inactive) | > 100 µM (inactive) | > 100 µM (inactive) | > 100 µM (inactive) | > 100 µM (inactive) |  | > 100 µM (inactive) |  | > 100 µM (inactive) | > 100 µM (inactive) | > 100 µM (inactive) | > 100 µM (inactive) |  | > 100 µM (inactive) | > 100 µM (inactive) | > 100 µM (inactive)
O=C1CCC(=O)C(C(=O)CCC(=O)Nc2cccc(Cl)c2)C1 (configuration not stated) | > 100 µM (inactive) | > 100 µM (inactive) | > 100 µM (inactive) | > 100 µM (inactive) | > 100 µM (inactive) | > 100 µM (inactive) | > 100 µM (inactive) | > 100 µM (inactive) | > 100 µM (inactive) |  | > 100 µM (inactive) | > 100 µM (inactive) | > 100 µM (inactive) | > 100 µM (inactive) | > 100 µM (inactive) | > 100 µM (inactive) | > 100 µM (inactive)
O=C(OCc1ccccc1)N1N=NC2C3CC(OCc4ccccc4)(OCc4ccccc4)C(O3)C21 (configuration not stated) | 17.3 µM (inactive) | 29.6 µM (inactive) | 23.1 µM (inactive) | 27 µM (inactive) |  | 12.6 µM (inactive) | 15.1 µM (inactive) | 12.8 µM (inactive) |  | 22.2 µM (inactive) | 26 µM (inactive) |  | 41.9 µM (inactive) | 20.6 µM (inactive) | 40.6 µM (inactive) | 4.65 µM (inactive) | 9.66 µM (inactive)
NC(C(=O)O)c1ccc(C(=O)O)cc1 (configuration not stated) | > 100 µM (inactive) | > 100 µM (inactive) | > 100 µM (inactive) | > 100 µM (inactive) |  |  | > 100 µM (inactive) | > 100 µM (inactive) | > 100 µM (inactive) | > 100 µM (inactive) | > 100 µM (inactive) | > 100 µM (inactive) | > 100 µM (inactive) | > 100 µM (inactive) | > 100 µM (inactive) | > 100 µM (inactive) | > 100 µM (inactive)
N#C/C(=C\c1ccc(O)c(O)c1)C(=O)NC1CCC(CC2CCC(NC(=O)/C(C#N)=C/c3ccc(O)c(O)c3)CC2)CC1 (configuration not stated) | 0.466 µM (active) | 0.718 µM (active) | 1.12 µM (inactive) | 2.24 µM (inactive) | 0.233 µM (active) | 1.55 µM (inactive) | 0.356 µM (active) | 1.3 µM (inactive) | 0.437 µM (active) | 3.32 µM (inactive) | 2.08 µM (inactive) | 0.459 µM (active) | 2.33 µM (inactive) | 0.465 µM (active) | 0.973 µM (active) | 1.77 µM (inactive) | 1.93 µM (inactive)
COC(=O)/C(=N/Nc1cccc(Cl)c1)C(C(=O)C(=O)Nc1cccc(Cl)c1C)c1nc2ccccc2nc1C (configuration not stated) | 63.7 µM (inactive) | 11.6 µM (inactive) | > 100 µM (inactive) | 43.8 µM (inactive) | 62.5 µM (inactive) |  |  | > 100 µM (inactive) | > 100 µM (inactive) | 68.5 µM (inactive) | 24.4 µM (inactive) | > 100 µM (inactive) | 60.7 µM (inactive) | > 100 µM (inactive) |  | 20.1 µM (inactive) | 36 µM (inactive)
COc1ccc(C2S/C(=C\c3ccccc3O)C(=O)N2NC(=O)Cc2ccccc2)cc1 (configuration not stated) | 98.6 µM (inactive) | > 100 µM (inactive) | > 100 µM (inactive) |  | 38.2 µM (inactive) | > 100 µM (inactive) | > 100 µM (inactive) | > 100 µM (inactive) | > 100 µM (inactive) | > 100 µM (inactive) | > 100 µM (inactive) | 83.2 µM (inactive) | > 100 µM (inactive) | > 100 µM (inactive) | > 100 µM (inactive) | > 100 µM (inactive) | > 100 µM (inactive)
